Measured values reported in publication PMC8400120, “Synthesis of Novel Methyl 7-[(Hetero)arylamino]thieno[2,3-b]pyrazine-6-carboxylates and Antitumor Activity Evaluation: Effects in Human Tumor Cells Growth, Cell Cycle Analysis, Apoptosis and Toxicity in Non-Tumor Cells” (Molecules, 2021).
“Also recorded” adds a separate entry of the source.

Experiments:
[1] = tested on: gastric adenocarcinoma (AGS); assay: SRB cell growth inhibition assay, AGS; assay type: cell-based, human; conditions: for GI50: AGS, SRB assay, 48 h incubation, mean ± SD
Procedure: (§1) The antitumor potential of the di(hetero)arylamines 2a–2o was evaluated using the sulforhodamine B (SRB) assay to establish some structure–activity relationships. Four human tumor cell lines (acquired from Leibniz-Institut DSMZ) were used: gastric adenocarcinoma (AGS), colorectal adenocarcinoma (CaCo-2), breast adenocarcinoma (MCF7), and non-small-cell lung cancer (NCI-H460), as well as a non-tumor cell line from African green monkey kidney (Vero) to evaluate the toxicity of the compounds. Ellipticine was used as a positive control, and the results are presented in GI50 values (µM) (Table 2).
(§2) Each cell line was prepared in 96-well plates, at the required density (1.0 × 10^4 cells/well) and incubated for 24 h to achieve cell attachment. The solutions of the compounds were applied and incubated for another 48 h. GI50 values (µM) corresponding to the compound concentration that inhibited 50% of cell growth were determined using the sulforhodamine B assay. Two separate tests were carried out for each compound, in duplicate, with the effects expressed as mean values and standard deviation (SD). Ellipticine was used as a positive control.

[2] = tested on: colorectal adenocarcinoma (CaCo-2); assay: SRB cell growth inhibition assay, CaCo-2; assay type: cell-based, human; conditions: for GI50: CaCo-2, SRB assay, 48 h incubation, mean ± SD
Procedure: as §1, §2

breast carcinoma (MCF7) = assay: SRB cell growth inhibition assay, MCF7; assay type: cell-based, human; conditions: MCF-7, SRB assay, 48 h incubation, mean ± SD
Procedure: as §1, §2

[3] = tested on: non-small-cell lung carcinoma (NCI-H460); assay: SRB cell growth inhibition assay, NCI-H460; assay type: cell-based, human; conditions: 48 h incubation, mean ± SD
Procedure: as §1, §2

[4] = SRB cell growth inhibition assay, non-tumor Vero cells (toxicity); assay type: cell-based; conditions: African green monkey, Vero cells (non-tumor kidney cell line), 48 h incubation, mean ± SD
Procedure: as §1, §2

AGS cells [5] = assay: Flow cytometric cell cycle analysis (PI staining); assay type: cell-based, human; conditions: at GI50 concentration, 72 h, vs blank
Procedure: This assay is based on the measurement of the DNA content in the PI-labeled nuclei. […] Cell cycle analysis was performed using propidium iodide (PI) staining and flow cytometry. This assay is established on the measurement of the DNA content of nuclei labeled with PI. Following this, the cells were staining according to the protocol PI/RNASE Solution (Immunostep, Spain, Salamanca). The harvested cells corresponding to 2 × 10^5 to 1 × 10^6 cells, were centrifuged for 5 min at 300g, and the supernatant was removed. The cells were fixed and added to 200 µL of 70% ethanol and left in the ethanol at 4 °C for 30 min. Following this, the cells were washed once in 2 mL phosphate-buffered saline (PBS) and centrifuged for 5 min at 300g and resuspended in 500 μL of PI solution (PI/RNASE) and incubated in the dark, at room temperature, for 15 min. Cell cycle phase distribution was evaluated using an Accuri C6 flow cytometer (BD Biosciences, San Jose, CA, USA). The DNA content of at least 20,000 cells was counted per sample, and the percentage of cells in different phases (G0/G1, S, and G2/M phases) of the cell cycle was evaluated using BD Accuri C6 software (BD Biosciences, San Jose, CA, USA). Ellipticine was used as a positive control at its GI50 concentration for AGS cell line.

AGS cells [6] = assay: Flow cytometric apoptosis detection (FITC Annexin V/PI); assay type: cell-based, human; conditions: at GI50 concentration, 72 h
Procedure: Apoptosis induction was performed using the Fluorescein Isothiocyanate (FITC) Annexin V Apoptosis Kit (BD Biosciences, San Jose, CA, USA), and measured by flow cytometry for compounds 2b, 2f, and 2g (Figure 3). FITC Annexin V staining was used to determine the percentage of cells within a population that are actively undergoing apoptosis. […] Apoptosis detection was performed using the Fluorescein Isothiocyanate (FITC) Annexin V Apoptosis Kit (BD Biosciences, San Jose, CA, USA) and flow cytometry. FITC Annexin V staining is used to determine the percentage of cells within a population that are actively undergoing apoptosis. The cells were washed twice with PBS and resuspended cells in 1× Binding Buffer (10 mM HEPES/NaOH, pH 7.4, 140 mM NaCl, 2.5 mM CaCl2) at a concentration of 1 × 10^6 cells/mL. Following this, 100 μL of the solution (1 × 10^5 cells) was transferred to a 5 mL culture tube and 5 μL of FITC Annexin V (BD Biosciences, San Jose, CA, USA) and 5 μL of PI (BD Biosciences, San Jose, CA, USA) were added to each tube, and they were incubated in the dark, at room temperature, for 15 min. Finally, 400 μL of 1× Binding Buffer was added to each tube. Next, 30,000 cells were acquired using an Accuri C6 flow cytometer (BD Biosciences, San Jose, CA, USA), and the percentage of cell distribution was evaluated with Accuri C6 software (BD Biosciences, San Jose, CA, USA). Ellipticine was used as a positive control at its GI50 concentration for AGS cell line.

| SMILES | GI50 ([1]; Homo sapiens, 48 h) [µM] | GI50 ([2]; Homo sapiens, Caco-2, 48 h) [µM] | GI50 (breast carcinoma (MCF7); Homo sapiens, MCF7, 48 h) [µM] | GI50 ([3]; Homo sapiens, NCI-H460, 48 h) [µM] | GI50 at 48 h [4] [µM] | melting point [°C] | Selectivity for CaCo-2 among the cell lines used ([2]; comparison of GI50 values) | GI50 [1] [µM] | GI50 [2] [µM] | GI50 (breast carcinoma (MCF7)) [µM] | GI50 [3] [µM] | Selectivity for AGS among the cell lines used ([1]; comparison of GI50 values) | AGS cell cycle profile histogram (AGS cells [5]) | High number of cells in apoptosis (expected from GI50 values) (AGS cells [6]) | Apoptotic cells (AGS cells [6]; Figure 4) | Dead cells (AGS cells [6]; Figure 4) | Live Cells (AGS cells [6]; Figure 4) | Cell death in apoptosis assay (AGS cells [6]; vs blank) |
| --- | --- | --- | --- | --- | --- | --- | --- | --- | --- | --- | --- | --- | --- | --- | --- | --- | --- | --- |
| COC(=O)c1sc2nccnc2c1Nc1cccc(F)c1 [2j, Methyl 7-[(3-Fluorophenyl)amino]thieno[2,3-b]pyrazine-6-carboxylate] | 86 ± 6 | 142 ± 11 | 96 ± 6 | 69 ± 7 | 149 ± 4 | – | – | – | – | – | – | – | – | – | – | – | – | – |
| COC(=O)c1sc2nccnc2c1-n1cccc1 [2m, Methyl 7-(1H-pyrrol-1-yl)thieno[2,3-b]pyrazine-6-carboxylate] | 88.6 ± 0.1 | 43.3 ± 0.3 | 128 ± 2 | 49 ± 2 | 140 ± 12 | 166 to 168 | – | – | – | – | – | – | – | – | – | – | – | – |
| COC(=O)c1sc2nccnc2c1Nc1ccccc1[N+](=O)[O-] [2o, Methyl 7-[(2-Nitrophenyl)amino]thieno[2,3-b]pyrazine-6-carboxylate] | 55 ± 0.3 | 31.2 ± 0.2 | 103 ± 3 | 43 ± 2 | 92 ± 8 | 225 to 227 | – | – | – | – | – | – | – | – | – | – | – | – |
| COC(=O)c1sc2nccnc2c1Nc1ccccc1F [2i, Methyl 7-[(2-Fluorophenyl)amino]thieno[2,3-b]pyrazine-6-carboxylate] | 48 ± 4 | 88.4 ± 0.2 | 128 ± 5 | 76 ± 1 | 117 ± 10 | – | – | – | – | – | – | – | – | – | – | – | – | – |
| COC(=O)c1sc2nccnc2c1Nc1cccc(OC)c1 [2c, Methyl 7-[(3-Methoxyphenyl)amino]thieno[2,3-b]pyrazine-6-carboxylate] | 98 ± 3 | 56 ± 1 | 160 ± 6 | 96 ± 1 | 94 ± 3 | 171 to 173 | – | – | – | – | – | – | – | – | – | – | – | – |
| COC(=O)c1sc2nccnc2c1Nc1ccc(C#N)cc1 [2n, Methyl 7-[(4-Cyanophenyl)amino]thieno[2,3-b]pyrazine-6-carboxylate] | 39 ± 3 | 10.9 ± 0.4 | 103 ± 2 | 105 ± 8 | 48 ± 4 | 214 to 216 | selective for this cell line; also recorded: selective against CaCo-2 cell line | – | – | – | – | – | – | – | – | – | – | – |
| COC(=O)c1sc2nccnc2c1Nc1ccc(OC)cc1 [2d, Methyl 7-[(4-Methoxyphenyl)amino]thieno[2,3-b]pyrazine-6-carboxylate] | 59 ± 3 | 60 ± 2 | 136 ± 3 | 52.8 ± 0.3 | 127 ± 3 | – | – | – | – | – | – | – | – | – | – | – | – | – |
| COC(=O)c1sc2nccnc2c1Nc1cc(OC)c(OC)c(OC)c1 [2h, Methyl 7-[(3,4,5-Trimethoxyphenyl)amino]thieno[2,3-b]pyrazine-6-carboxylate] | 33 ± 3 | 9.2 ± 0.3 | 105.7 ± 0.5 | 77 ± 6 | 53 ± 5 | – | – | – | – | – | – | – | – | – | – | – | – | – |
| COC(=O)c1sc2nccnc2c1Nc1ccc(F)cc1 [2k, Methyl 7-[(4-Fluorophenyl)amino]thieno[2,3-b]pyrazine-6-carboxylate] | 118 ± 2 | 62 ± 4 | 160 ± 7 | 84 ± 2 | 149 ± 7 | 171 to 173 | – | – | – | – | – | – | – | – | – | – | – | – |
| Cc1c2ccncc2c(C)c2c1[nH]c1ccccc12 [Ellipticine, reference compound] | ≤ 1 | ≤ 1 | ≤ 1 | ≤ 1 | 0.6 ± 0.1 | – | – | 0.9 ± 0.1 | 0.8 ± 0.1 | 1.02 ± 0.004 | 1.01 ± 0.01 | – | – | – | – | – | – | – |
| COC(=O)c1sc2nccnc2c1Nc1cc(OC)cc(OC)c1 [2g, Methyl 7-[(3,5-Dimethoxyphenyl)amino]thieno[2,3-b]pyrazine-6-carboxylate] | 7.8 ± 0.2 | 38 ± 4 | 182 ± 5 | 120 ± 10 | 144 ± 10 | – | – | – | – | – | – | selective for this cell line | high percentage of cell death and an atypical distribution on cell cycle profile | not verified | 19,6% | 60,4% | 19,0% | large amount of cell death |
| COC(=O)c1sc2nccnc2c1Nc1ccc(OC)cc1OC [2e, Methyl 7-[(2,4-Dimethoxyphenyl)amino]thieno[2,3-b]pyrazine-6-carboxylate] | 34 ± 2 | 56 ± 2 | 140 ± 7 | 200 ± 3 | 138 ± 8 | 159 to 161 | – | – | – | – | – | – | – | – | – | – | – | – |
| COC(=O)c1sc2nccnc2c1Nc1cccnc1 [2l, Methyl 7-[(Pyridin-3-yl)amino]thieno[2,3-b]pyrazine-6-carboxylate] | 63.3 ± 0.1 | 45 ± 3 | 116 ± 5 | 122 ± 11 | 110 ± 5 | 150 to 152 | – | – | – | – | – | – | – | – | – | – | – | – |
| COC(=O)c1sc2nccnc2c1Nc1ccccc1 [2a, Methyl 7-(Phenylamino)thieno[2,3-b]pyrazine-6-carboxylate] | 95 ± 9 | 38 ± 2 | 97 ± 2 | 122 ± 9 | 120 ± 6 | 154 to 156 | – | – | – | – | – | – | – | – | – | – | – | – |
